According to patent US12590123B2, “Compounds and methods for treating cancer, viral infections, and allergic conditions” (Washington University, priority 2019, dated 2026):

How the values were obtained:
[1] = molecular target: T1, recombinant HGFA serine protease domain (Homo sapiens, UniProt Q04756); experiment: Fluorescent kinetic enzyme assay of HGFA activity (Boc-QLR-AMC); format: biochemical; conditions: Table 2; read-out: HGFA (IC50 nM)
T1 construct: His6 tag (N); seven amino acid spacer plus TEV cleavage site (N); made in house; host or cells: High 5 insect cells (baculovirus; Sf9 for virus production)
T1 sequence (Q04756 373-655): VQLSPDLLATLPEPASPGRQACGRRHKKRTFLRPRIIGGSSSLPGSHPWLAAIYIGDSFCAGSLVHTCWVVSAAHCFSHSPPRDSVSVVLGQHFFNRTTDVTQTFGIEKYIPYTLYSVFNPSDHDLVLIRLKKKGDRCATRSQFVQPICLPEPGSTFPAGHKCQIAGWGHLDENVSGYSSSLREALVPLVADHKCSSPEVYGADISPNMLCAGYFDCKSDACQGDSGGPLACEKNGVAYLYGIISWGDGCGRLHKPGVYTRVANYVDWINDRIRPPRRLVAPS
Summary of the method: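 His-tagged HGFA protease domain from baculovirus-infected High 5 cells, 6.25 nM in pH 8 Tris/NaCl/5 mM CaCl2/0.01% Triton X-100 with 2% DMSO. IC50 from four-parameter velocity fit (≥3 runs); apparent Ki by Cheng–Prusoff.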

[2] = molecular target: Factor Xa (Homo sapiens, UniProt P00742); experiment: Chromogenic kinetic enzyme assay of Factor Xa (S2222); format: biochemical; conditions: Table 2; chromogenic assay; read-out: Factor Xa* (IC50 nM)
Chain of Factor Xa (P00742 235-488 limits assumed): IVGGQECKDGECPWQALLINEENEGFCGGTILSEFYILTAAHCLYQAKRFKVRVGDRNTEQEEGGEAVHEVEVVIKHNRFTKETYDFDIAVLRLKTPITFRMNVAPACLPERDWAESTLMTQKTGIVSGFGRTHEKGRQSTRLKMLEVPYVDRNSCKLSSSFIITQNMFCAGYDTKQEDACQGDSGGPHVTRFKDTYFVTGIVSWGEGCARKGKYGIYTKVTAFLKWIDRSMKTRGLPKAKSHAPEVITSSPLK
Chain of Factor Xa (P00742 41-179 partner limits assumed): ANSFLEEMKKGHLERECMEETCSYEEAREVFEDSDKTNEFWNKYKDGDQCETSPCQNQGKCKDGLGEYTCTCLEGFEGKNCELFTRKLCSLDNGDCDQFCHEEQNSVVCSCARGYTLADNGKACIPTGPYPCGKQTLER

IC50 [1]: 3170 nM | IC50 [2]: 1530 nM
Compound: CC(=O)N[C@H]1CC(=O)NCCCC[C@@H](C(=O)N[C@@H](CCCNC(=N)N)C(=O)c2nc3ccccc3s2)NC(=O)[C@H](Cc2ccccc2)NC1=O [VD3112, (3S,6S,14S)-6-acetamido-N—((S)-1-(benzo[d]thiazol-2-yl)-5-guanidino-1-oxopentan-2-yl)-3-benzyl-2,5,8-trioxo-1,4,9-triazacyclotetradecane-14-carboxamide]
